This data set is described as follows: gradient 5% acetonitrile 3 min, to 50% in 2 min, to 85% in 15 min, held 3 min, 100 µL/min. The following applies: column: Zorbax Extend-C18 2.1 x 50 mm; eluents: water / acetonitrile, 0.1% formic acid. The gist of the method:
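Data were gathered over 3 months by HPLC coupled to a quadrupole time-of-flight mass spectrometer, operated in positive and negative ionization mode. Mixtures of ~100 pure standards ran on a Zorbax Extend-C18 column (2.1 × 50 mm, 1.8 μm) at 100 μL/min, with water and acetonitrile each containing 0.1% formic acid and dead and dwell volumes of 40 μL and 900 μL. Retention time was read from adduct peaks picked by computer and checked manually.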
Take `CCN1CCC2(CC1)CN(Cc1cccc(Cl)c1)Cc1ccccc1O2`: the RP-LC retention time came to 585 s.

`CC1CCN(C(=O)c2cc3c(s2)CCC(C(=O)Nc2ccc4c(c2)OCCO4)C3)CC1` (stereo not drawn) returned an RP-LC retention time of 947 s.

Regarding `Cc1ccc(-c2cc3n(n2)CCCN(C(=O)Cc2ccccc2F)C3)cc1`, the RP-LC retention time was 939 s.

Regarding `O=c1c(S(=O)(=O)N2CCCC2)cccn1Cc1ccc(Cl)cc1`, the RP-LC retention time was 876 s.

`COc1ccccc1-c1noc(Cn2ncn3nc(-c4ccccc4Cl)cc3c2=O)n1`: the RP-LC retention time stood at 1040 s.

In turn, `Cc1nc2cc(-c3noc(-c4ccc(C#N)cc4)n3)ccc2n(C2CCCC2)c1=O` registered an RP-LC retention time of 691 s.

`Cc1nc(CCNC(=O)C(C)(C)C)no1` returned an RP-LC retention time of 619 s.

Consider `CCC(C)(C)NC(=O)C1CCCN(S(=O)(=O)c2c[nH]c(C(=O)N3CCCCCC3)c2)C1` (stereo not drawn), for which the RP-LC retention time came to 871 s.

The compound `CCOC(=O)C1CCCN(C(=O)C2c3ccccc3C(=O)N3CCc4cc(OC)c(OC)cc4C23)C1` (stereo not drawn) showed an RP-LC retention time of 766 s.

For the compound `O=S(=O)(NCc1ccco1)c1ccc(Cl)c(-c2nnc(-c3ccccc3)o2)c1`, the RP-LC retention time was 980 s.

On to `O=C(CN1C(=O)c2ccccc2C1=O)Oc1ccc2nc(N3CCCCC3)sc2c1`, for which the RP-LC retention time was 923 s.

`CCc1onc(C)c1C1CCCN1C(=O)Nc1ccc(OC)cc1OC` (stereo not drawn) displayed an RP-LC retention time of 796 s.

Consider `CCn1c(=O)sc2cc(S(=O)(=O)N3CCC(C(=O)N4CCCC4)CC3)ccc21`, for which the RP-LC retention time came out at 761 s.

Take `CN(C)CCNC(=O)C1CCN(c2nc3ccc(-c4ccsc4)nc3s2)CC1`: the RP-LC retention time worked out at 645 s.

`Cc1ccsc1C(=O)N1CCC2(CC1)NC(=O)N(Cc1ccccc1Cl)C2=O`: the RP-LC retention time was 847 s.

`CCOc1cccc(-c2noc(Cn3ccn(Cc4ccc(Cl)cc4)c(=O)c3=O)n2)c1` gave an RP-LC retention time of 973 s.

For the compound `CCCN1C(=O)COc2cc(-c3noc(C(=O)N4CCN(c5cccc(Cl)c5)CC4)n3)ccc21`, the RP-LC retention time worked out at 1230 s.

With `CCOC(=O)c1[nH]c(C)c(C(=O)C(C)N(C(=O)c2cccc(OC)c2)C2CC2)c1C` (stereo not drawn), the RP-LC retention time was 879 s.

`COc1cccc(NS(=O)(=O)c2ccc(-c3nnc(C4CCC4)o3)o2)c1` gave an RP-LC retention time of 881 s.

`Cc1cc(C)c(S(=O)(=O)N2CCN(Cc3cccc(F)c3)C3(CCOCC3)C2)cc1C` yielded an RP-LC retention time of 974 s.

Compound `CCNC(=O)C1CCCN(c2nc3ncn(CC(=O)Nc4cccc(F)c4)c(=O)c3s2)C1` (stereo not drawn) gave an RP-LC retention time of 676 s.

`COc1ccc(CNC(=O)c2ccc3c(c2)N(C)C(=O)C2CCCCN32)c(OC)c1` (stereo not drawn): the RP-LC retention time was determined as 868 s.

`COc1cccc(NC(=O)c2cn3c(n2)CCCC3)c1` returned an RP-LC retention time of 598 s.

Regarding `O=C(Cn1cnc2c(sc3nc(-c4ccccc4)ccc32)c1=O)NCCC1=CCCCC1`, the RP-LC retention time turned out to be 1090 s.

As for `Cc1cc(N2CCC(NC(=O)Nc3ccc4c(c3)OCCO4)C2=O)ccc1F` (stereo not drawn), the RP-LC retention time worked out at 774 s.

As for `COc1cc(NC(=O)c2c(OC)cc(=O)n3c2CCCC3)cc(OC)c1`, the RP-LC retention time amounted to 691 s.

Take `Cc1sc(NC(=O)c2ccc(Cl)cc2)nc1-c1ccc2c(c1)NC(=O)C(C)O2` (stereo not drawn): the RP-LC retention time stood at 968 s.

As for `Cc1ccc(-c2ncc(C(=O)NCCC3=CCCCC3)c(-c3ccncc3)n2)cc1`, the RP-LC retention time was found to be 1050 s.

Regarding `O=C(Cn1ccn2nc(-c3ccccc3)c(CO)c2c1=O)Nc1cc(Cl)cc(Cl)c1`, the RP-LC retention time was 867 s.

As to `COc1ccc(NC(=O)Cn2cccc2-c2nc(-c3ccc4c(c3)OCO4)no2)cc1OC`, the RP-LC retention time stood at 1040 s.

For `CSc1ccccc1C(=O)NCC1CN(c2ccccc2)C(=O)O1` (stereo not drawn), the RP-LC retention time came to 712 s.

In turn, `O=C(NCc1cccc(C(F)(F)F)c1)C1CCN(c2nnc(-c3ccccc3)o2)CC1` registered an RP-LC retention time of 896 s.

`O=C(Cc1nnc(-c2ccccc2)o1)NC1CCCC1` returned an RP-LC retention time of 675 s.

Compound `COc1ccc(-c2nnc(N3CCC(C(=O)NCCN4CCOCC4)CC3)o2)cc1` returned an RP-LC retention time of 889 s.

For `O=C(c1cn(-c2cc(N3CCCCC3)ncn2)cn1)N1CCN(c2ccccn2)CC1`, the RP-LC retention time amounted to 636 s.

`CC(C)c1nnc(C2CCN(C(=O)c3ccc4nc[nH]c4c3)CC2)o1` yielded an RP-LC retention time of 545 s.

Compound `N#Cc1ccc(O[C@@H]2c3ccccc3C[C@H]2N2CCC[C@@H](N)C2)c(Cl)c1` had an RP-LC retention time of 707 s.

`COc1ccc(CC(=O)N2CCC(c3cc(N)on3)CC2)cc1`: the RP-LC retention time came to 662 s.

With `CCn1cc(-c2nc(C)c(C(=O)Nc3cccc(C)c3)s2)c2cccnc21`, the RP-LC retention time turned out to be 971 s.

`O=C(CN1CCN(Cc2ccc(F)cc2)C1=O)NCCc1cccs1` had an RP-LC retention time of 776 s.

`O=C1[C@H]2CN(Cc3cccc(OC(F)(F)F)c3)C[C@H]2C(=O)N1CCc1ccccc1` came in with an RP-LC retention time of 1000 s.

Consider `O=C(NCc1ccco1)c1ccc(OCc2nc(C3CC3)cs2)cc1`, for which the RP-LC retention time was found to be 825 s.

As for `O=C(NCCc1csc(-c2ccc(F)cc2)n1)Nc1ccccc1C(F)(F)F`, the RP-LC retention time is 948 s.

As to `COc1ccc(S(=O)(=O)N2CCC(OCc3noc(C4CCCO4)n3)CC2)cc1` (stereo not drawn), the RP-LC retention time turned out to be 863 s.

As for `O=C(NCCCn1cccc1)C1COc2ccccc2O1` (stereo not drawn), the RP-LC retention time stood at 803 s.

`O=C(NCCc1csc(-c2ccccc2)n1)C1CCN(C(=O)Cc2ccc(Cl)cc2)CC1` registered an RP-LC retention time of 866 s.

In turn, `C[C@@H]1OC(=O)[C@H]2C[C@H]3CCCC[C@@H]3[C@@H](/C=C/[C@H]3CCC[C@H](C)N3C)[C@@H]12` came in with an RP-LC retention time of 745 s.

The compound `CCn1c(C(=O)N2CCCC(C(=O)N3CCN(c4ccc(OC)cc4)CC3)C2)cc2sccc21` (stereo not drawn) came in with an RP-LC retention time of 885 s.

Take `CCN1C(=O)COc2cc(-c3noc(C(=O)NCCc4ccc(S(N)(=O)=O)cc4)n3)ccc21`: the RP-LC retention time was determined as 732 s.

The compound `COCCn1cc2c3c(cccc31)CN(C(=O)Cc1ccccc1Cl)CC2` gave an RP-LC retention time of 975 s.

On to `Cc1ccc(C2Cn3cnc(C(=O)N4CCC(C(=O)NCc5cccs5)CC4)c3CO2)cc1` (stereo not drawn), for which the RP-LC retention time stood at 756 s.

The compound `O=S(=O)(c1ccc(-c2noc(-c3ccc(F)c(F)c3)n2)cc1)N1CCOCC1` gave an RP-LC retention time of 1110 s.

With `CCCNC(=O)C1CCCN(c2ccc(SCC(=O)NCc3ccc(C(F)(F)F)cc3)nn2)C1` (stereo not drawn), the RP-LC retention time is 700 s.

As to `CCOc1cc(=O)c(C(N)=O)nn1-c1ccc(F)c(F)c1`, the RP-LC retention time was 637 s.

In the case of `O=c1n(Cc2ccccc2F)nc2c(S(=O)(=O)N3CCCCCC3)cccn12`, the RP-LC retention time was determined as 938 s.

`COc1ccccc1NC(=O)Cn1cccc(-c2nc(-c3ccc(Br)cc3)no2)c1=O` registered an RP-LC retention time of 1000 s.

Turning to `Cc1cccc(-c2nnc(-c3nc(N4CCCCC4C)c4ccccc4n3)o2)c1` (stereo not drawn), the RP-LC retention time was determined as 1270 s.

With `CCNC(=O)C1CCCN(c2nc3ncn(CC(=O)Nc4ccc(F)cc4)c(=O)c3s2)C1` (stereo not drawn), the RP-LC retention time was 657 s.

Source of the values: the METLIN SMRT retention time set (Domingo-Almenara et al. 2019).
